According to patent EP4227307A1 (Genzyme Corporation, priority 2022, dated 2023):
Counter-ions that a name gives are not always drawn.

molecular target: T1, human recombinant 6His-Nterm SHP2 full-length (Thr2-Arg593) (Homo sapiens, UniProt Q06124); experiment: SHP2 Phosphatase Assay (DiFMUP fluorescence); assay type: biochemical; settings: SHP2 0.2 nM pre-incubated with 100 nM bi-phosphorylated activating peptide; compound 1000-0.05 nM, 30 min pre-incubation; DiFMUP 20 µM, 45 min, room temperature; 10-concentration dose-response
T1 construct: 6His-Nterm SHP2 full-length (Thr2-Arg593, R&D system); 6His (N); purchased R&D system
T1 sequence (Q06124 2-593): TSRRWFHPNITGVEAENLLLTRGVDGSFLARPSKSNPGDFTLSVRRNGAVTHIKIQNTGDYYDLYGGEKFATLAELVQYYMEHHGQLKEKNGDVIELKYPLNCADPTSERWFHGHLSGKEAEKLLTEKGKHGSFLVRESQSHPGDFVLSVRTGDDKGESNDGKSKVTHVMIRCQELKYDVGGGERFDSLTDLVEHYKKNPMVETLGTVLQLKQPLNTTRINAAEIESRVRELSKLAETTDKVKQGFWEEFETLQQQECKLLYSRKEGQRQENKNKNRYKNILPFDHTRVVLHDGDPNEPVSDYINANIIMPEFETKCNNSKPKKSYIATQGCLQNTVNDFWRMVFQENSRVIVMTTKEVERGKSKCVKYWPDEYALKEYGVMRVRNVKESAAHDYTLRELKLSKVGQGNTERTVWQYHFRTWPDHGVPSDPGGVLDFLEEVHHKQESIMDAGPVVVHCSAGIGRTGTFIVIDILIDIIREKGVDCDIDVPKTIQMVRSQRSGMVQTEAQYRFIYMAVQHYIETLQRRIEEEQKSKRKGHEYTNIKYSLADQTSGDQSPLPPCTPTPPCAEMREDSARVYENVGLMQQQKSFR
Outline: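 SHP2 (0.2 nM) preactivated ≥10 min with 100 nM bis-phosphorylated peptide, then 30 min with compound (10 concentrations, 1000–0.05 nM) at room temperature, pH 7.2 HEPES buffer with DTT. DiFMUP (20 µM, added solution) reacted 45 min, pervanadate-stopped; fluorescence 350/450 nm. IC50 by 4-parameter logistic fit.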

Point of comparison: `Cc1nc(N2CCC3(CC2)Cc2ncsc2[C@H]3N)c2ccnn2c1-c1ccccc1` [Compound 74, (6S)-1'-(6-methyl-7-phenyl-pyrazolo [1,5-a]pyrazin-4-yl)spiro[4,6-dihydrocyclopenta[d]thiazole-5,4'-piperidine] -6-amine hydrochloride], IC50 5 nM. Against it:
- Cc1nc(N2CCC3(CC2)Cc2scnc2[C@H]3N)c2ccnn2c1-c1ccccc1 [Compound 68, (4S)-1'-(6-methyl-7-phenyl-pyrazolo[1,5-a]pyrazin-4-yl)spiro[4,6-dihydrocyclopenta[d]thiazole-5,4'-piperidine]-4-amine hydrochloride] — 3.6-fold higher, 18 nM
- Cc1nccc(-c2c(C)nc(N3CCC4(CC3)Cc3scnc3[C@H]4N)c3ccnn23)c1Cl [Compound 69, (4S)-1'-[7-(3-chloro-2-methyl-4-pyridyl)-6-methyl-pyrazolo[1,5-a]pyrazin-4-yl]spiro[4,6-dihydrocyclopenta[d]thiazole-5,4'-piperidine]-4-amine hydrochloride] — 2-fold higher, 10 nM
- Cc1nc(N2CCC3(CC2)Cc2ncccc2[C@H]3N)c2ccnn2c1-c1ccncc1 [Compound 70, (5S)-1'-[6-methyl-7-(4-pyridyl)pyrazolo[1,5-a]pyrazin-4-yl]spiro[5,7-dihydrocyclopenta[b]pyridine-6,4'-piperidine]-5-amine hydrochloride] — 15-fold higher, 73 nM
- Cc1nc(N2CCC3(CC2)Cc2ncccc2[C@H]3N)c2ccnn2c1-c1ccncc1F [Compound 71, (5S)-1'-[7-(3-fluoro-4-pyridyl)-6-methyl-pyrazolo[1,5-a]pyrazin-4-yl]spiro[5,7-dihydrocyclopenta[b]pyridine-6,4'-piperidine]-5-amine hydrochloride] — 6-fold higher, 30 nM
- Cc1nccc(-c2c(C)nc(N3CCC4(CC3)Cc3ncsc3[C@H]4N)c3ccnn23)c1Cl [Compound 73, (6S)-1'-[7-(3-chloro-2-methyl-4-pyridyl)-6-methyl-pyrazolo[1,5-a]pyrazin-4-yl]spiro[4,6-dihydrocyclopenta[d]thiazole-5,4'-piperidine]-6-amine hydrochloride] — the same, 5 nM
- Cc1nc(N2CCC3(CC2)Cc2ncsc2[C@H]3N)c2ccnn2c1-c1ccccc1F [Compound 75, (6S)-1'-[7-(2-fluorophenyl)-6-methyl-pyrazolo[1,5-a]pyrazin-4-yl]spiro[4,6-dihydrocyclopenta[d]thiazole-5,4'-piperidine]-6-amine hydrochloride] — within 1.5-fold, 7 nM
- COc1cc(-c2c(C)nc(N3CCC4(CC3)Cc3ncccc3[C@H]4N)c3ccnn23)c(F)cn1 [Compound 76, (5S)-1'-[7-(5-fluoro-2-methoxy-4-pyridyl)-6-methyl-pyrazolo [1,5-a]pyrazin-4-yl]spiro[5,7-dihydrocyclopenta[b]pyridine-6,4'-piperidine] -5-amine hydrochloride] — 14-fold higher, 72 nM
- Cc1nc(N2CCC3(CC2)Cc2ncccc2[C@H]3N)c2ccnn2c1-c1ccc2nccnc2c1Cl [Compound 77, (5S)-1'-[7-(5-chloroquinoxalin-6-yl)-6-methyl-pyrazolo[1,5-a]pyrazin-4-yl]spiro[5,7-dihydrocyclopenta[b]pyridine-6,4'-piperidine]-5-amine] — within 1.5-fold, 4 nM
- Cc1nc(N2CCC3(CC2)Cc2ncccc2[C@H]3N)c2ccnn2c1-c1ccc2nccnc2c1F [Compound 78, (5S)-1'-[7-(5-fluoroquinoxalin-6-yl)-6-methyl-pyrazolo[1,5-a]pyrazin-4-yl]spiro [5,7-dihydrocyclopenta[b]pyridine-6,4'-piperidine] -5-amine hydrochloride] — 2.4-fold higher, 12 nM
- Cc1nc(N2CCC3(CC2)Cc2ncc(F)cc2[C@H]3N)c2ccnn2c1-c1ccc2nccnc2c1Cl [Compound 79, (5S)-1'-[7-(5-chloroquinoxalin-6-yl)-6-methyl-pyrazolo[1,5-a]pyrazin-4-yl]-3-fluoro-spiro[5,7-dihydrocyclopenta[b]pyridine-6,4'-piperidine]-5-amine hydrochloride] — 2-fold higher, 10 nM
- Cc1nc(N2CCC3(CC2)Cc2cc(F)c(F)cc2[C@H]3N)c2ccnn2c1-c1cnn(C)c1C [Compound 80, (1S)-1'-[7-(1,5-dimethylpyrazol-4-yl)-6-methyl-pyrazolo[1,5-a]pyrazin-4-yl]-5,6-difluoro-spiro [indane-2,4'-piperidine]-1-amine hydrochloride] — 3.4-fold higher, 17 nM
- Cc1nc2c(s1)[C@@H](N)C1(CCN(c3nc(C)c(-c4ccc5nccnc5c4Cl)n4nccc34)CC1)C2 [Compound 81, (6S)-1'-[7-(5-chloroquinoxalin-6-yl)-6-methyl-pyrazolo[1,5-a]pyrazin-4-yl]-2-methyl-spiro [4,6-dihydrocyclopenta[d]thiazole-5,4'-piperidine]-6-amine hydrochloride] — within 1.5-fold, 4 nM
- Cc1nc2c(s1)[C@@H](N)C1(CCN(c3nc(C)c(-c4cnn(C)c4C)n4nccc34)CC1)C2 [Compound 82, (6S)-1'-[7-(1,5-dimethylpyrazol-4-yl)-6-methyl-pyrazolo[1,5-a]pyrazin-4-yl]-2-methyl-spiro[4,6-dihydrocyclopenta[d]thiazole-5,4'-piperidine] -6-amine hydrochloride] — 5.4-fold higher, 27 nM
- Cc1nc2c(s1)[C@@H](N)C1(CCN(c3nc(C)c(-c4ccccc4F)n4nccc34)CC1)C2 [Compound 83, (6S)-1'-[7-(2-fluorophenyl)-6-methyl-pyrazolo[1,5-a]pyrazin-4-yl]-2-methyl-spiro[4,6-dihydrocyclopenta[d]thiazole-5,4'-piperidine]-6-amine hydrochloride] — 2-fold higher, 10 nM
- Cc1nc2c(s1)[C@@H](N)C1(CCN(c3nc(C)c(-c4ccnc(C)c4Cl)n4nccc34)CC1)C2 [Compound 84, (6S)-1'-[7-(3-chloro-2-methyl-4-pyridyl)-6-methyl-pyrazolo[1,5-a]pyrazin-4-yl]-2-methyl-spiro[4,6-dihydrocyclopenta[d]thiazole-5,4'-piperidine]-6-amine hydrochloride] — the same, 5 nM
- COc1cccc(-c2cnc(N3CCC4(CC3)Cc3ncccc3[C@H]4N)c3ccnn23)c1F [Compound 85, (5S)-1'-[7-(2-fluoro-3-methoxyphenyl)pyrazolo[1,5-a]pyrazin-4-yl]spiro[5,7-dihydrocyclopenta[b]pyridine-6,4'-piperidine] -5-amine hydrochloride] — 5.4-fold higher, 27 nM
- Cc1nccc(-c2cnc(N3CCC4(CC3)Cc3ncccc3[C@H]4N)c3ccnn23)c1Cl [Compound 86, (5S)-1'-[7-(3-chloro-2-methyl-4-pyridyl)pyrazolo[1,5-a]pyrazin-4-yl]spiro[5,7-dihydrocyclopenta[b]pyridine-6,4'-piperidine]-5-amine hydrochloride] — 12-fold higher, 60 nM
- N[C@@H]1c2cccnc2CC12CCN(c1ncc(-c3cccc(F)c3Cl)n3nccc13)CC2 [Compound 87, (5 S)-1'-[7-(2-chloro-3-fluorophenyl)pyrazolo[1,5-a]pyrazin-4-yl]spiro [5,7-dihydrocyclopenta[b]pyridine-6,4'-piperidine] -5-amine hydrochloride] — 4.4-fold higher, 22 nM
- Cc1c(-c2cnc(N3CCC4(CC3)Cc3ncccc3[C@H]4N)c3ccnn23)cnn1C [Compound 88, (5S)-1'-[7-(1,5-dimethylpyrazol-4-yl)pyrazolo [1,5-a]pyrazin-4-yl]spiro[5,7-dihydrocyclopenta[b]pyridine-6,4'-piperidine] -5-amine hydrochloride] — 69-fold higher, 346 nM
- N[C@@H]1c2cccnc2CC12CCN(c1ncc(-c3ccc(F)c4cc[nH]c34)n3nccc13)CC2 [Compound 89, (5S)-1'-[7-(4-fluoro-1H-indol-7-yl)pyrazolo[1,5-a]pyrazin-4-yl]spiro[5,7-dihydrocyclopenta[b]pyridine-6,4'-piperidine] -5-amine hydrochloride] — 1.8-fold higher, 9 nM
- N[C@@H]1c2cccnc2CC12CCN(c1ncc(-c3cnn4ccccc34)n3nccc13)CC2 [Compound 90, (5S)-1'-(7-pyrazolo[1,5-a]pyridin-3-ylpyrazolo[1,5-a]pyrazin-4-yl)spiro [5,7-dihydrocyclopenta[b]pyridine-6,4'-piperidine] -5-amine hydrochloride] — 2.6-fold higher, 13 nM
- Cc1nccc(-c2c(C)nc(N3CCC4(CC3)Cc3ccc(F)cc3[C@H]4N)c3ccnn23)c1Cl [Compound 91, (1S)-1'-[7-(3-chloro-2-methyl-4-pyridyl)-6-methyl-pyrazolo[1,5-a]pyrazin-4-yl]-6-fluoro-spiro[indane-2,4'-piperidine]-1-amine hydrochloride] — 3.8-fold higher, 19 nM
- Cc1nccc(-c2c(C)nc(N3CCC4(CC3)Cc3c(F)cccc3[C@H]4N)c3ccnn23)c1Cl [Compound 92, (1S)-1'-[7-(3-chloro-2-methyl-4-pyridyl)-6-methyl-pyrazolo[1,5-a]pyrazin-4-yl]-4-fluoro-spiro[indane-2,4'-piperidine]-1-amine formate] — 1.6-fold higher, 8 nM
- Cc1nc(N2CCC3(CC2)Cc2c(F)cccc2[C@H]3N)c2ccnn2c1-c1ccccc1F [Compound 93, (1S)-4-fluoro-1'-[7-(2-fluorophenyl)-6-methyl-pyrazolo[1,5-a]pyrazin-4-yl]spiro[indane-2,4'-piperidine]-1-amine hydrochloride] — 9.2-fold higher, 46 nM
